From ChEMBL document CHEMBL1201862, “PubChem BioAssay data set” (2004)
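Values below derive from 48-hour exposures of cells grown in 96-well plates, with endpoints linearly interpolated between the two concentrations bracketing the appropriate inhibition level. GI50 marks 50% less growth.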 Calls of active or inactive are those of the source. No stated cut-off is given here; in the data, active = GI50 up to about 1.1 µM and inactive = higher.

Legend:
Test in all cases: NCI anticancer screen, dose series, 48 h
SK-OV-3 = test system: SK-OV-3
NCI-H522 = test system: NCI-H522
SF-268 = test system: SF-268
UACC-62 = test system: UACC-62
K562 = test system: K562
HCT-15 = test system: HCT-15
NCI-H460 = test system: NCI-H460
COLO 205 = test system: COLO 205
A549 = test system: A549
MOLT-4 = test system: MOLT-4
HCC 2998 = test system: HCC 2998
RPMI-8226 = test system: RPMI-8226
OVCAR-4 = test system: OVCAR-4
DU-145 = test system: DU-145
T47D = test system: T47D
MCF7 = test system: MCF7
OVCAR-3 = test system: OVCAR-3
OVCAR-8 = test system: OVCAR-8
BT-549 = test system: BT-549
NCI-H23 = test system: NCI-H23

Row | Compound | GI50 (SK-OV-3) | GI50 (NCI-H522) | GI50 (SF-268) | GI50 (UACC-62) | GI50 (K562) | GI50 (HCT-15) [µM] | GI50 (NCI-H460) | GI50 (COLO 205) | GI50 (A549) | GI50 (MOLT-4) | GI50 (HCC 2998) | GI50 (RPMI-8226) | GI50 (OVCAR-4) | GI50 (DU-145) | GI50 (T47D) | GI50 (MCF7) | GI50 (OVCAR-3) | GI50 (OVCAR-8) | GI50 (BT-549) | GI50 (NCI-H23)
1 | Clc1cc2c(cc1Cl)CC(NCCN1CCCC1)CC2 (centres undefined) | 17.7 µM (inactive) | 17.1 µM (inactive) | 15.3 µM (inactive) | 2.87 µM (inactive) | 10.8 µM (inactive) | 12.9 | 16.4 µM (inactive) | 3.07 µM (inactive) | 14.8 µM (inactive) | 20.5 µM (inactive) | 2.7 µM (inactive) | 12.6 µM (inactive) | 17.2 µM (inactive) | 14.7 µM (inactive) | 10.4 µM (inactive) | 15.6 µM (inactive) | 17.1 µM (inactive) | 16.7 µM (inactive) | 15 µM (inactive) | 16 µM (inactive)
2 | Cc1cc(Nc2ccc(S(=O)(=O)O)cc2)c2ccccc2n1 | > 100 µM (inactive) | > 100 µM (inactive) | > 100 µM (inactive) | > 100 µM (inactive) | > 100 µM (inactive) | > 100 | – | > 100 µM (inactive) | > 100 µM (inactive) | > 100 µM (inactive) | > 100 µM (inactive) | > 100 µM (inactive) | > 100 µM (inactive) | > 100 µM (inactive) | > 100 µM (inactive) | > 100 µM (inactive) | > 100 µM (inactive) | > 100 µM (inactive) | > 100 µM (inactive) | > 100 µM (inactive)
3 | CC(C)(C)OC(=O)N(CCCCNC(=O)C(F)(F)F)CCCNC(=O)C(F)(F)F | > 100 µM (inactive) | > 100 µM (inactive) | > 100 µM (inactive) | > 100 µM (inactive) | > 100 µM (inactive) | > 100 | > 100 µM (inactive) | > 100 µM (inactive) | > 100 µM (inactive) | > 100 µM (inactive) | > 100 µM (inactive) | > 100 µM (inactive) | > 100 µM (inactive) | > 100 µM (inactive) | > 100 µM (inactive) | > 100 µM (inactive) | > 100 µM (inactive) | > 100 µM (inactive) | > 100 µM (inactive) | > 100 µM (inactive)
4 | COC1CCN(N(C)C)O1 (centres undefined) | – | > 100 µM (inactive) | > 100 µM (inactive) | > 100 µM (inactive) | > 100 µM (inactive) | > 100 | > 100 µM (inactive) | > 100 µM (inactive) | > 100 µM (inactive) | > 100 µM (inactive) | > 100 µM (inactive) | > 100 µM (inactive) | > 100 µM (inactive) | > 100 µM (inactive) | > 100 µM (inactive) | > 100 µM (inactive) | > 100 µM (inactive) | > 100 µM (inactive) | > 100 µM (inactive) | > 100 µM (inactive)
5 | O=c1c2cc(I)ccc2nc(SCc2nnco2)n1Cc1ccccc1 | > 100 µM (inactive) | 44 µM (inactive) | > 100 µM (inactive) | 73.8 µM (inactive) | – | > 100 | > 100 µM (inactive) | > 100 µM (inactive) | > 100 µM (inactive) | 0.1 µM (active) | 96.2 µM (inactive) | > 100 µM (inactive) | > 100 µM (inactive) | > 100 µM (inactive) | > 100 µM (inactive) | 81.1 µM (inactive) | > 100 µM (inactive) | > 100 µM (inactive) | > 100 µM (inactive) | > 100 µM (inactive)
6 | COc1ccc2oc(=N)c(C(N)=S)cc2c1 | 33.2 µM (inactive) | 17.5 µM (inactive) | 15.5 µM (inactive) | 16 µM (inactive) | 28.4 µM (inactive) | 17.5 | 16.9 µM (inactive) | 29.8 µM (inactive) | 32.1 µM (inactive) | 20 µM (inactive) | 17.3 µM (inactive) | 21.3 µM (inactive) | 31.9 µM (inactive) | 27.2 µM (inactive) | 23.7 µM (inactive) | 27.7 µM (inactive) | – | 18.2 µM (inactive) | 18.5 µM (inactive) | –
7 | NS(=O)(=O)c1ccc(/N=N/c2ccc(O)c(O)c2)cc1 | 23.3 µM (inactive) | 1.6 µM (inactive) | 14.5 µM (inactive) | – | 28.7 µM (inactive) | 3.18 | 19.9 µM (inactive) | 20.7 µM (inactive) | 20.3 µM (inactive) | 3.79 µM (inactive) | 21.2 µM (inactive) | 10.7 µM (inactive) | 5.98 µM (inactive) | 31 µM (inactive) | 34.8 µM (inactive) | 27.5 µM (inactive) | 24.3 µM (inactive) | 4.88 µM (inactive) | 2.58 µM (inactive) | 17 µM (inactive)
